Drawing on ChEMBL document CHEMBL4622954, “Structural manipulation of aporphines via C10 nitrogenation leads to the identification of new 5-HT7AR ligands” (Bioorg Med Chem, 2020), this text covers Ki and inhibition for 27 compounds.

Test [1] deals with T1, 5-hydroxytryptamine receptor 7 (Homo sapiens, UniProt P34969). Put plainly: biochemical.
Description: (§1) Displacement of [3H]-LSD from human 5-HT7A receptor expresssed in stable HEK cell membrane incubated for 90 mins by microbeta counting method
The target of test [2] is T2, 5-hydroxytryptamine receptor 6 (Homo sapiens, UniProt P50406). Kind of test: Displacement of [3H]-LSD from human 5-HT6 receptor expresssed in stable HEK cell membrane incubated for 90 mins by microbeta counting method.
The target of test [3] is T3, 5-hydroxytryptamine receptor 1A (Homo sapiens, UniProt P08908).
T3 sequence (P08908 whole entry): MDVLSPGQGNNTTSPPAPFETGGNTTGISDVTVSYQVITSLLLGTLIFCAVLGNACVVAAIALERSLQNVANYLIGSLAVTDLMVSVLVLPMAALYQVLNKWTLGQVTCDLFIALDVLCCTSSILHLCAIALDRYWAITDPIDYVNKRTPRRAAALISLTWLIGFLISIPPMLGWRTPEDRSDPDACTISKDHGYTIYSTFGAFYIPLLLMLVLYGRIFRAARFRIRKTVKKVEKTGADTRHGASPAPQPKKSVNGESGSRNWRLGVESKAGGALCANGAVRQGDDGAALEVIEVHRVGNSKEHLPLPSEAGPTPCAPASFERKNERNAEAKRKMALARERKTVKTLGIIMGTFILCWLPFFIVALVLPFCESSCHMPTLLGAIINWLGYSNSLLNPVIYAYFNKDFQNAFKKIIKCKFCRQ
Put plainly: biochemical.
Description: (§2) Displacement of [3H]-WAY100635 from human 5-HT1A receptor expresssed in stable CHO cell membrane incubated for 90 mins by microbeta counting method

The target in test [4] is 5-hydroxytryptamine receptor 2A (Homo sapiens, UniProt P28223).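 Also: [3H]-Ketanserin displacement from the 5-HT2A receptor after 90 min incubation, with bound label read by MicroBeta counting.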
Description: Displacement of [3H]-Ketanserin from 5-HT2A receptor (unknown origin) incubated for 90 mins by microbeta counting method
Test [5] has as its target T2, 5-hydroxytryptamine receptor 6.
For test [6] the target is unchanged. Put plainly: biochemical.
The target in another test is D(1B) dopamine receptor (Homo sapiens, UniProt P21918). Put plainly: Binding affinity to human dopamine D5 receptor expressed in HEKT cells incubated for 90 mins by microbeta counting method. In kind it is cell-based.
In a further test the target is D(2) dopamine receptor (Homo sapiens, UniProt P14416). Conditions: fibroblast; call rule not given here.
The target in a further test is D(1A) dopamine receptor (Homo sapiens, UniProt P21728).
For the next test, the target named is T4, D(4) dopamine receptor (Homo sapiens, UniProt P21917).
T4 sequence (P21917 whole entry): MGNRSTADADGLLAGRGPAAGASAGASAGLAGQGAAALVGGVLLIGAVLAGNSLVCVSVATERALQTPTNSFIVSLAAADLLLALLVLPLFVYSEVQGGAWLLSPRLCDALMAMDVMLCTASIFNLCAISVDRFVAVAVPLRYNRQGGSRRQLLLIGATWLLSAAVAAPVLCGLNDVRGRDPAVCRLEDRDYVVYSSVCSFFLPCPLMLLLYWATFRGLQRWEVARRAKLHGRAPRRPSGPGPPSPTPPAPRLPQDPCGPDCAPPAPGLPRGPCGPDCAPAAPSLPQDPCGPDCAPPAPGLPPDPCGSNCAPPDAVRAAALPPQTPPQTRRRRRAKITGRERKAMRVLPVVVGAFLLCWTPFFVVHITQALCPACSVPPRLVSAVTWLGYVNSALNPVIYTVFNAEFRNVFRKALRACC
Put plainly: Displacement of [3H]-N-Methylspiperone from human dopamine D4 receptor expressed in stable HEK cells incubated for 90 mins by microbeta counting method. In kind it is cell-based. For orientation: Loss of bound radioactivity is the signal in a displacement assay; it reports binding, not function.

Test [7] deals with T5, 5-hydroxytryptamine receptor 1A (Homo sapiens) (UniProt P08908).
T5 sequence (whole entry): T3 sequence (P08908 whole entry)
To be noted: CHO.
Description: as §2

Test [8] deals with T3, 5-hydroxytryptamine receptor 1A. To be noted: cho.
Description: as §2
The target of a further test is D(3) dopamine receptor (Homo sapiens, UniProt P35462).
The target in test [9] is T1, 5-hydroxytryptamine receptor 7.
Description: as §1
For test [10] the target is unchanged. This is another data set of the same source.
Description: as §1

As a reminder, the Ki is a measure of affinity in units of concentration, obtained from inhibition or displacement. As usually defined, the inhibition is the change of the read-out against control, counted positive when it falls. Low readings indicate a weak effect, high ones a strong effect.

T2 sequence (P50406 whole entry): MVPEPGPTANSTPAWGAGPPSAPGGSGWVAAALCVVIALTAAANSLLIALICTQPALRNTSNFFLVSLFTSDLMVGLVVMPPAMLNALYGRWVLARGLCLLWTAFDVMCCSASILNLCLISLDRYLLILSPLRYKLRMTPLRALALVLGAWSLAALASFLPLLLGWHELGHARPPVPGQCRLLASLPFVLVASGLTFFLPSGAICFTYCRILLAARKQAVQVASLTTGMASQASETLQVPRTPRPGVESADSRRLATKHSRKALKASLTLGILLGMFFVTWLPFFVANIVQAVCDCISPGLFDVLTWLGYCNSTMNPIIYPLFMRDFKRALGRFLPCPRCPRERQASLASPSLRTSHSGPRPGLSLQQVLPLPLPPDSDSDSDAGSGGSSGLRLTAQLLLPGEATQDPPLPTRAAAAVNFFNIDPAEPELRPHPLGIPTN
T1 sequence (P34969 whole entry): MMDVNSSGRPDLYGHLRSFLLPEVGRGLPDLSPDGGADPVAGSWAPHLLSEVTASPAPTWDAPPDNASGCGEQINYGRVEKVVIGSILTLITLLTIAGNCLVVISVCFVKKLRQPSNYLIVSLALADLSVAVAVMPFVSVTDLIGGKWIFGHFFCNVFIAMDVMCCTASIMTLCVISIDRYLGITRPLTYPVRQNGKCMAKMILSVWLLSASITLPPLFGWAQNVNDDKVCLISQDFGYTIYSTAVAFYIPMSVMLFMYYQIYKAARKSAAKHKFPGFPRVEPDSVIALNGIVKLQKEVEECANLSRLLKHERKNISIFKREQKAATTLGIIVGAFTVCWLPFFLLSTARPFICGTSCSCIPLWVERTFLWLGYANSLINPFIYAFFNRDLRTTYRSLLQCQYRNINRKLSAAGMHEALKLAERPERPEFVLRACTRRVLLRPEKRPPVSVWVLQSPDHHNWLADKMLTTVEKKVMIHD
Chain of 5-hydroxytryptamine receptor 2A (P28223 whole entry): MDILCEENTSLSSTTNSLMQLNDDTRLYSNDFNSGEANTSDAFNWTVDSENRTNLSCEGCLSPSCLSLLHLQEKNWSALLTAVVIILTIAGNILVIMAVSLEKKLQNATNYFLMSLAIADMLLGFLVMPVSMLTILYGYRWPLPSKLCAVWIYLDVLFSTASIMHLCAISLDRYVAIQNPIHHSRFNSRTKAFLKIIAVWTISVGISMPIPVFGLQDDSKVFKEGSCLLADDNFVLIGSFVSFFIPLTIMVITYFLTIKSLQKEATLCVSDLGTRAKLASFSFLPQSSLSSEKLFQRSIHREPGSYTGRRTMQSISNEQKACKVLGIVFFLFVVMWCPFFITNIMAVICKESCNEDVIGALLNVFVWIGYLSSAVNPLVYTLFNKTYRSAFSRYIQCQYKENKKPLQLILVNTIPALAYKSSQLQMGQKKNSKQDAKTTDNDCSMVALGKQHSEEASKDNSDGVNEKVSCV
Chain of D(1B) dopamine receptor (P21918 whole entry): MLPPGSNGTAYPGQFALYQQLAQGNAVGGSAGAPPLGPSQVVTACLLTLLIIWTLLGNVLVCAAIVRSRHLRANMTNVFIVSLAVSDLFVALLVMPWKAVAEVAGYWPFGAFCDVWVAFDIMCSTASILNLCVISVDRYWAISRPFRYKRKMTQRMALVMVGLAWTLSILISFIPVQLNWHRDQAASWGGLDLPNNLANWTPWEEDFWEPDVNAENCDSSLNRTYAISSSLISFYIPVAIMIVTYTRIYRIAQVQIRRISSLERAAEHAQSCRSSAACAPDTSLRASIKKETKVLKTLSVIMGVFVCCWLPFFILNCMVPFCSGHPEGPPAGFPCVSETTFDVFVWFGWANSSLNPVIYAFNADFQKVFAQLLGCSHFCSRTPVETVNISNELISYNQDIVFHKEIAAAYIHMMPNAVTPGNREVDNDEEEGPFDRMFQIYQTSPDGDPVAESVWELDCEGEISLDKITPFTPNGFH
Chain of D(1A) dopamine receptor (P21728 whole entry): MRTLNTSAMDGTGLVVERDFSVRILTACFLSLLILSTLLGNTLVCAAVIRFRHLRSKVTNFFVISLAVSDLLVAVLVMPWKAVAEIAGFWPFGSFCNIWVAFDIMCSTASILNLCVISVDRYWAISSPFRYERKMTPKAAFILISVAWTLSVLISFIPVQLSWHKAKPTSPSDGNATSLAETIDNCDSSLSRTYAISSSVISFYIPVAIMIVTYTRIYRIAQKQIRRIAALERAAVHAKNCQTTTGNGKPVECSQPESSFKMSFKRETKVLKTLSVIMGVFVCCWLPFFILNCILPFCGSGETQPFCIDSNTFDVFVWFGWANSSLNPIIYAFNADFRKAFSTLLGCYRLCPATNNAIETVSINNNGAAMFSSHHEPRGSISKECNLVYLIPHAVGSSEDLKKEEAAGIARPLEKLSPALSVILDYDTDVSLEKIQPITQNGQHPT
Chain of D(2) dopamine receptor (P14416 whole entry): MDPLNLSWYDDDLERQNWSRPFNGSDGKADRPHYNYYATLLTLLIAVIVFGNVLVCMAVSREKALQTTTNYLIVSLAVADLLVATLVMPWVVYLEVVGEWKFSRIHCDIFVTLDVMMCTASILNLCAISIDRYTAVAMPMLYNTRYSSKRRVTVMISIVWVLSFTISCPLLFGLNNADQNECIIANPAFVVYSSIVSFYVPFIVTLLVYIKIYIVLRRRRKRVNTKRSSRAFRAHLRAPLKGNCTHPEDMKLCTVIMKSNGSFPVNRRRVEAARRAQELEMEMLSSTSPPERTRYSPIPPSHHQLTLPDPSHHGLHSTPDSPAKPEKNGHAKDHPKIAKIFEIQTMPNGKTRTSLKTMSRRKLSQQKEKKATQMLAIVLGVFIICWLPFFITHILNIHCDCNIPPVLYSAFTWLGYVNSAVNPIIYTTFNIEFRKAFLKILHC
Chain of D(3) dopamine receptor (P35462 whole entry): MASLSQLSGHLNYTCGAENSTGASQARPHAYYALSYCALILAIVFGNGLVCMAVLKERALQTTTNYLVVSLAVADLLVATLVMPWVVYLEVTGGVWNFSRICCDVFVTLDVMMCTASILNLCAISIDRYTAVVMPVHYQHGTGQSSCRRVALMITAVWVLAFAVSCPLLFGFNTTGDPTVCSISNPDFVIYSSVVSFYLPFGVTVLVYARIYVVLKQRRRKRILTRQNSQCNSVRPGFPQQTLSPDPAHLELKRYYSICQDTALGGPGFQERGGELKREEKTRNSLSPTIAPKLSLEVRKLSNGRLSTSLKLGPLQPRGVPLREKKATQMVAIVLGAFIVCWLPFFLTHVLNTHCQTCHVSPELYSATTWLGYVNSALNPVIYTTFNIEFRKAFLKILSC
Description for D(1A) dopamine receptor: Displacement of [3H]-SCH23390 from human dopamine D1 receptor expressed in HEKT cells incubated for 90 mins by microbeta counting method
Description for D(2) dopamine receptor: Displacement of [3H]-N-Methylspiperone from human dopamine D2 receptor expressed in stable fibroblast cells incubated for 90 mins by microbeta counting method
Description for D(3) dopamine receptor: Displacement of [3H]-N-Methylspiperone from dopamine D3 receptor (unknown origin) incubated for 90 mins by microbeta counting method

On to `CCCN1CCc2cccc3c2C1Cc1ccc(N)cc1-3` (stereo not drawn), for which the Ki was 63 nM in test [1], 30 nM in test [3], “Not Active” in [4] and “Not Active” in test [5]. This compound came in with an inhibition in test [2] below 50%.

Turning to `C#CCOc1c(OC)cc2c3c1-c1cc(NS(C)(=O)=O)ccc1CC3N(C)CC2` (racemic), the Ki in test [1] is 31 nM; in test [3], 511 nM; in test [6], 218 nM; in [4] (read-out: Ki) it was 1330 nM.

With `COc1cc2c3c(c1OCC1CC1)-c1cc(NC(C)=O)ccc1CC3N(C)CC2` (racemic), the Ki in [1] is 636 nM; in [3] it was 1540 nM; in test [6] it was 1500 nM; in [4] (read-out: Ki), 974 nM.

Regarding `CN1CCc2cccc3c2C1Cc1cc2sc(N)nc2cc1-3` (racemic), the Ki result on D(1B) dopamine receptor is “Not Active”; on D(2) dopamine receptor, “Not Active”; in test [3] it was 23 nM; in test [4] it was “Not Active”; in test [5] it was “Not Active”; on D(1A) dopamine receptor, “Not Active”. Besides, the Ki result at D(4) dopamine receptor is “Not Active”.

Take `CCCN1CCc2cccc3c2C1Cc1ccc(N(C)C)cc1-3` (racemic): the Ki in test [1] is 984 nM; in test [3], 256 nM; in test [4], “Not Active”; in [5] it was “Not Active”. In test [2], this compound came in with an inhibition below 50%.

`COc1cc2c3c(c1OCC1CC1)-c1cc(NC(N)=O)ccc1CC3N(C)CC2` (racemic): the Ki in [1] stood at 353 nM; in test [3] it was 1280 nM; in test [6], 527 nM; in test [4] (read-out: Ki), 857 nM.

For `COc1cc2c3c(c1OC)-c1cc(NC(N)=O)ccc1CC3N(C)CC2` (racemic), the Ki in [1] was 289 nM; in [8], “Not Active”; in test [6], 415 nM; in test [4], “Not Active”. This compound gave an inhibition in test [7] below 50%.

With `CCCC(=O)Nc1ccc2c(c1)-c1cccc3c1C(C2)N(CCC)CC3` (racemic), the Ki in test [1] was 311 nM; in test [3] it was 15 nM; in test [4] it was “Not Active”; in test [5] it was “Not Active”. In test [2], this compound showed an inhibition below 50%.

Regarding `CN1CCc2cccc3c2C1Cc1ccc(NC(N)=O)cc1-3` (racemic), the Ki result was “Not Active” on D(1B) dopamine receptor; “Not Active” on D(2) dopamine receptor; 2460 nM on D(3) dopamine receptor; 49 nM in test [3]; “Not Active” in [4]; “Not Active” in test [5]. Further, the Ki result on D(1A) dopamine receptor and at D(4) dopamine receptor was “Not Active” each time.

As for `C#CCOc1c(OC)cc2c3c1-c1cc(NC(=O)CCC)ccc1CC3N(C)CC2` (racemic), the Ki was found to be 455 nM in [1], 661 nM in test [3], 354 nM in [6] and 1040 nM in [4] (read-out: Ki).

With `CN(C)c1ccc2c(c1)-c1cccc3c1C(C2)N(C)CC3` (racemic), the Ki in test [1] came to 17 nM; in test [3], 458 nM; in test [6], 1590 nM; in test [4] (read-out: Ki) it was 566 nM.

For `CCCN1CCc2cccc3c2C1Cc1ccc(NC(C)=O)cc1-3` (racemic), the Ki result in [9] is “Not Active”; in test [3], 21 nM; in test [4], “Not Active”; in test [5], “Not Active”. Moreover, the inhibition in [2] and in test [10] was below 50% each time.

Take `COc1cc2c3c(c1OCC1CC1)-c1cc(N)ccc1CC3N(C)CC2` (racemic): the Ki was 104 nM in [1], “Not Active” in [8], 132 nM in [6] and 110 nM in [4] (read-out: Ki). Moreover, the inhibition in test [7] was below 50%.

With `CCCN1CCc2cccc3c2C1Cc1ccc(NC(N)=O)cc1-3` (racemic), the Ki entry was “Not Active” in [9], 236 nM in [3], “Not Active” in test [4] and “Not Active” in test [5]. Moreover, the inhibition in test [2] and in test [10] was below 50% in each case.

`C=CCOc1c(OC)cc2c3c1-c1cc(NC(=O)CCC)ccc1CC3N(C)CC2` (racemic): the Ki stood at 188 nM in test [1], 463 nM in test [3], 198 nM in test [6] and 443 nM in test [4] (read-out: Ki).

For `COc1cc2c3c(c1OCC1CC1)-c1cc(NS(C)(=O)=O)ccc1CC3N(C)CC2` (racemic), the Ki was 114 nM in test [1], 385 nM in [3], 505 nM in [6] and 433 nM in test [4] (read-out: Ki).

In the case of `C#CCOc1c(OC)cc2c3c1-c1cc(NC(N)=O)ccc1CC3N(C)CC2` (racemic), the Ki in test [1] was 123 nM; in test [3] it was 911 nM; in test [6] it was 410 nM; in [4] it was “Not Active”.

As to `COc1cc2c3c(c1OC)-c1cc(NS(C)(=O)=O)ccc1CC3N(C)CC2` (racemic), the Ki in test [1] is 89 nM; in [8], “Not Active”; in test [6], 86 nM; in [4] it was “Not Active”. In addition, the inhibition in [7] was below 50%.

With `CCCC(=O)Nc1ccc2c(c1)-c1c(OCC3CC3)c(OC)cc3c1C(C2)N(C)CC3` (racemic), the inhibition constant (Ki) was 395 nM in [1], 429 nM in test [3], 322 nM in test [6] and 665 nM in test [4] (read-out: Ki).

For `CCCN1CCc2cccc3c2C1Cc1ccc(NS(C)(=O)=O)cc1-3` (racemic), the inhibition constant Ki was 199 nM in test [1], 23 nM in [3], “Not Active” in test [4] and “Not Active” in test [5]. This compound also showed an inhibition in test [2] below 50%.

Take `C=CCOc1c(OC)cc2c3c1-c1cc(NS(C)(=O)=O)ccc1CC3N(C)CC2` (racemic): the Ki was 42 nM in test [1], 403 nM in [3], 590 nM in test [6] and 668 nM in test [4] (read-out: Ki).

Regarding `COc1cc2c3c(c1OC)-c1cc(N(C)C)ccc1CC3N(C)CC2` (racemic), the Ki in test [1] stood at 73 nM; in [3], 1570 nM; in test [6] it was 127 nM; in test [4] (read-out: Ki), 295 nM.

As to `C=CCOc1c(OC)cc2c3c1-c1cc(N(C)C)ccc1CC3N(C)CC2` (racemic), the inhibitory constant (Ki) is 309 nM in test [1], “Not Active” in test [8], 102 nM in test [6] and 318 nM in test [4] (read-out: Ki). The compound also gave an inhibition in test [7] below 50%.

In the case of `COc1cc2c3c(c1OCC1CC1)-c1cc(N(C)C)ccc1CC3N(C)CC2` (racemic), the Ki is 752 nM in test [1], 1440 nM in test [3], 329 nM in test [6] and 878 nM in test [4] (read-out: Ki).

In the case of `CN1CCc2cccc3c2C1Cc1ccc(NS(C)(=O)=O)cc1-3` (racemic), the Ki in test [1] is 27 nM; in test [3], 133 nM; in test [4] it was “Not Active”; in test [5] it was “Not Active”. This compound also yielded an inhibition in test [2] below 50%.

In the case of `CCCN1CCc2cccc3c2C1Cc1ccc2nc(N)sc2c1-3` (racemic), the inhibition in [2] is below 50%. Further, the inhibition constant (Ki) was 93 nM in [3], “Not Active” in test [4] and “Not Active” in [5].

Consider `CCCC(=O)Nc1ccc2c(c1)-c1c(OC)c(OC)cc3c1C(C2)N(C)CC3` (racemic), for which the Ki in [1] came to 67 nM; in test [3], 469 nM; in [6], 356 nM; in [4] (read-out: Ki), 417 nM.
